Laboratory results as given in PMC2976052 (The Journal of steroid biochemistry and molecular biology, 2010).
pEC50: −log10 of the molar value. Read-outs that look alike come from different tables or passages of the source.

Key:
GFP-GRER chimera [1] = target: T1, GFP-GRER chimera (Homo sapiens, UniProt P03372); details: ER agonist treatment ref 17; cited from earlier work
GFP-GRER chimera [2] = target: T1, GFP-GRER chimera; test: cell-based
parental C127 cell line = format: cell-based, murine; details: for nuclear translocation: parental cell line; for nuclear fluorescence in parental cell line: hits retested in parental cell line
GFP-GRER chimera [3] = target: T1, GFP-GRER chimera
6020 cells = test: Cytotoxicity measurements by image analysis
[4] = estradiol dose response, five 384-well plates
[5] = staurosporine dose-response, 4 hours, 96-well

T1 sequence (P03372 302-595, change not shown): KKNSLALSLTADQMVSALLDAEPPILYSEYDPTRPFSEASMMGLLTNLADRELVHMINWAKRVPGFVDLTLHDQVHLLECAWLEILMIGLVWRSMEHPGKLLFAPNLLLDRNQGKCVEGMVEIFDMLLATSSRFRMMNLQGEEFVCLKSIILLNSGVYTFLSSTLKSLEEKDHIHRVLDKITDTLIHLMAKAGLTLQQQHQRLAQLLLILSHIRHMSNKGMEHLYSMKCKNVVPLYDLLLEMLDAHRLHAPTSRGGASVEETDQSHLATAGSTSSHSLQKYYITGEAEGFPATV

CCCc1c(-c2ccc(O)cc2)nn(-c2ccc(O)cc2)c1-c1ccc(O)cc1 [PPT, propyl pyrazoletriol]
effect on transcription, ERE-driven gene reporter (GFP-GRER chimera [1]): induced transcription | pEC50 (GFP-GRER chimera [2]): 6.85

COc1cccc2c1C(=O)c1c(O)c3c(c(O)c1C2=O)C[C@@](O)(C(=O)CO)C[C@@H]3O[C@H]1C[C@H](N)[C@H](O)[C@H](C)O1 [adriamycin]
nuclear translocation (parental C127 cell line; hit retest in quadruplicate): 95% | nuclear translocation (GFP-GRER chimera [3]; 6020 (assay) cell line, hit retest in quadruplicate): 97%

C[C@]12CC[C@@H]3c4ccc(O)cc4CC[C@H]3[C@@H]1CC[C@@H]2O [estradiol, 17-β estradiol]
nuclear fluorescence in parental cell line (parental C127 cell line): did not show nuclear fluorescence | nuclear translocation (parental C127 cell line; 5 μM estradiol control): 0% | cytoplasmic area (6020 cells; [4]): does not decrease | nuclear area (6020 cells; [4]): remains unchanged

C[C@]12CC[C@@H]3c4ccc(O)cc4CC[C@H]3[C@@H]1CCC2=O [estrone]
nuclear fluorescence in parental cell line (parental C127 cell line): did not show nuclear fluorescence

O=C(c1ccc(OCCN2CCCCC2)cc1)c1c(-c2ccc(O)cc2)sc2cc(O)ccc12 [raloxifene]
nuclear translocation (parental C127 cell line; hit retest in quadruplicate): 0%

CN[C@@H]1C[C@H]2O[C@@](C)([C@@H]1OC)n1c3ccccc3c3c4c(c5c6ccccc6n2c5c31)C(=O)NC4 [staurosporine]
nuclear translocation result of cytotoxic compound (GFP-GRER chimera [3]; staurosporine dose-response for 4 hours, 96-well): false positive nuclear translocation results | cytoplasmic area (6020 cells; [5]): dose-dependent decrease in cytoplasmic area | nuclear area (6020 cells; [5]): dose-dependent decrease in nuclear area | ROIs (cell number) (6020 cells; staurosporine dose-response, data not shown): decrease in cell number with increasing staurosporine concentration
